Test results from patent US20230398130A1, “METHODS AND COMPOSITIONS FOR DIFFERENTIATING STEM CELLS” (Massachusetts Institute of Technology, priority 2020, published 2023).

What was measured:
[1] = tested on: ISC-enriched organoids; assay: Primary screen, 384-well 2.5-D organoid differentiation (ENR+CD, 6 days, Target Selective Inhibitor Library, vs whole-plate median): ATP (CellTiter-Glo 3D, CTG); conditions: for Dose.FC.CTG (log 2 fold change, ATP): vs plate median
[2] = tested on: ISC-enriched organoids; assay: Primary screen, 384-well 2.5-D organoid differentiation (ENR+CD, 6 days): carbachol-induced lysozyme secretion (LYZ.S); assay type: cell-based, murine; conditions: vs plate median
Excerpt: (§1) High-throughput screening.

[3] = tested on: ISC-enriched organoids; assay: Primary screen, 384-well 2.5-D organoid differentiation (ENR+CD, 6 days): basal lysozyme secretion (LYZ.NS); assay type: cell-based, murine; conditions: for Dose.FC.LYZ.NS (log 2 fold change, basal lysozyme secretion): vs plate median
Excerpt: as §1

| Compound | Z.CTG (standard z score) ([1]; dose 0.08 uM) | Dose.FC.CTG (log 2 fold change, ATP) ([1]; dose 0.08 uM) | Z.CTG (standard z score) ([1]; dose 0.40 uM) | Dose.FC.CTG (log 2 fold change, ATP) ([1]; dose 0.40 uM) | Z.CTG (standard z score) ([1]; dose 2.00 uM) | Dose.FC.CTG (log 2 fold change, ATP) ([1]; dose 2.00 uM) | Z.CTG (standard z score) ([1]; dose 10.00 uM) | Dose.FC.CTG (log 2 fold change, ATP) ([1]; dose 10.00 uM) | Dose.FC.LYZ.S (log 2 fold change, carbachol-induced lysozyme secretion) ([2]; dose 0.08 uM) | Dose.FC.LYZ.S (log 2 fold change, carbachol-induced lysozyme secretion) ([2]; dose 0.40 uM) | Dose.FC.LYZ.S (log 2 fold change, carbachol-induced lysozyme secretion) ([2]; dose 2.00 uM) | Dose.FC.LYZ.S (log 2 fold change, carbachol-induced lysozyme secretion) ([2]; dose 10.00 uM) | Z.LYZ.NS (standard z score) ([3]; dose 0.08 uM) | Dose.FC.LYZ.NS (log 2 fold change, basal lysozyme secretion) ([3]; dose 0.08 uM) | Z.LYZ.NS (standard z score) ([3]; dose 0.40 uM) | Dose.FC.LYZ.NS (log 2 fold change, basal lysozyme secretion) ([3]; dose 0.40 uM) | Z.LYZ.NS (standard z score) ([3]; dose 2.00 uM) | Dose.FC.LYZ.NS (log 2 fold change, basal lysozyme secretion) ([3]; dose 2.00 uM) | Z.LYZ.NS (standard z score) ([3]; dose 10.00 uM) | Dose.FC.LYZ.NS (log 2 fold change, basal lysozyme secretion) ([3]; dose 10.00 uM) |
| --- | --- | --- | --- | --- | --- | --- | --- | --- | --- | --- | --- | --- | --- | --- | --- | --- | --- | --- | --- | --- |
| c1ccc(NCc2ccc(CNc3ccccn3)cc2)nc1 [WZ811] | 0.334 | 0.140 | −0.082 | −0.034 | 0.184 | 0.077 | 0.104 | 0.044 | 0.296 | 0.007 | 0.074 | 0.019 | 1.337 | 0.154 | 0.162 | 0.019 | 0.815 | 0.094 | 0.045 | 0.005 |
| CCC(=O)Nc1cccc(Oc2nc(Nc3ccc(N4CCN(C)CC4)cc3OC)ncc2Cl)c1 [WZ4003] | 0.896 | 0.375 | 0.413 | 0.173 | 0.180 | 0.076 | −0.043 | −0.018 | 0.117 | −0.034 | −0.035 | −0.142 | 0.644 | 0.074 | −0.359 | −0.041 | −0.151 | −0.017 | −0.850 | −0.098 |
| Cc1cc(-c2ccc(CC(=O)Nc3ccc(-c4cccnc4)cc3)cc2)ccn1 [Wnt-C59 (C59)] | −1.366 | −0.572 | −1.461 | −0.611 | −1.498 | −0.627 | −1.465 | −0.613 | −0.242 | −0.281 | −0.313 | −0.301 | −1.424 | −0.163 | −1.588 | −0.182 | −1.724 | −0.198 | −1.666 | −0.191 |
| COCC[n+]1c2c(n(Cc3cnccn3)c1C)C(=O)c1ccccc1C2=O.[Br-] [YM155 (Sepantronium Bromide)] | 0.531 | 0.222 | −0.198 | −0.083 | −1.100 | −0.460 | −2.316 | −0.970 | 0.172 | −0.039 | −0.137 | −0.210 | 0.995 | 0.114 | −0.266 | −0.031 | −0.714 | −0.082 | −0.839 | −0.096 |
